PubChem BioAssay (NCI)
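Five concentrations, 48 hours, 96-well plates. TGI denotes the concentration required for complete inhibition of growth.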

tested on: M14 melanoma; assay: NCI anticancer screen, dose series, 48 h

Question: How did the TGI turn out when `O=c1c2ccccc2c2c3c1cccc3c1cccc3c(=O)c4ccccc4c2c31` was run?
Answer: > 100 µM

Question: How did the TGI turn out when `COC(=O)C(=O)C(C(=O)C(=O)Nc1cc([N+](=O)[O-])ccc1C#N)c1nc2ccccc2[nH]c1=O` (configuration not stated) was run?
Answer: > 100 µM

Question: For `CC(C)(C)C1(O)Cc2ccccc2C(=O)O1` (configuration not stated), which TGI is on record?
Answer: > 100 µM

tested on: RXF 393 renal; assay: NCI anticancer screen, dose series, 48 h

Question: Which TGI does the source give for `O=c1c2ccccc2c2c3c1cccc3c1cccc3c(=O)c4ccccc4c2c31` here?
Answer: > 100 µM

Question: `Clc1ccc(CNc2nc3ccccc3nc2-c2cccs2)c(Cl)c1` was tested. Which TGI did it give?
Answer: > 100 µM

Question: How did the TGI turn out when `COC(=O)C(=O)C(C(=O)C(=O)Nc1cc([N+](=O)[O-])ccc1C#N)c1nc2ccccc2[nH]c1=O` (configuration not stated) was run?
Answer: > 100 µM

Question: With `CC(C)(C)C1(O)Cc2ccccc2C(=O)O1` (configuration not stated) as the molecule, how does the TGI read?
Answer: > 100 µM

tested on: MOLT-4 leukemia; assay: NCI anticancer screen, dose series, 48 h

Question: Which TGI does the source give for `O=c1c2ccccc2c2c3c1cccc3c1cccc3c(=O)c4ccccc4c2c31` here?
Answer: > 100 µM

Question: Which TGI does the source give for `Clc1ccc(CNc2nc3ccccc3nc2-c2cccs2)c(Cl)c1` here?
Answer: > 100 µM

Question: Which TGI does the source give for `COC(=O)C(=O)C(C(=O)C(=O)Nc1cc([N+](=O)[O-])ccc1C#N)c1nc2ccccc2[nH]c1=O` (configuration not stated) here?
Answer: > 100 µM

Question: Which TGI does the source give for `CC(C)(C)C1(O)Cc2ccccc2C(=O)O1` (configuration not stated) here?
Answer: > 100 µM

tested on: IGROV1 ovarian; assay: NCI anticancer screen, dose series, 48 h

Question: How did the TGI turn out when `O=c1c2ccccc2c2c3c1cccc3c1cccc3c(=O)c4ccccc4c2c31` was run?
Answer: > 100 µM

Question: Which TGI does the source give for `COC(=O)C(=O)C(C(=O)C(=O)Nc1cc([N+](=O)[O-])ccc1C#N)c1nc2ccccc2[nH]c1=O` (configuration not stated) here?
Answer: > 100 µM

Question: How did the TGI turn out when `CC(C)(C)C1(O)Cc2ccccc2C(=O)O1` (configuration not stated) was run?
Answer: > 100 µM

tested on: K-562 leukemia; assay: NCI anticancer screen, dose series, 48 h

Question: For `O=c1c2ccccc2c2c3c1cccc3c1cccc3c(=O)c4ccccc4c2c31`, which TGI is on record?
Answer: > 100 µM

Question: For `Clc1ccc(CNc2nc3ccccc3nc2-c2cccs2)c(Cl)c1`, which TGI is on record?
Answer: > 100 µM

Question: For `CC(C)(C)C1(O)Cc2ccccc2C(=O)O1` (configuration not stated), which TGI is on record?
Answer: > 100 µM

tested on: A549 NSCLC; assay: NCI anticancer screen, dose series, 48 h

Question: Which TGI does the source give for `O=c1c2ccccc2c2c3c1cccc3c1cccc3c(=O)c4ccccc4c2c31` here?
Answer: > 100 µM

Question: For `Clc1ccc(CNc2nc3ccccc3nc2-c2cccs2)c(Cl)c1`, which TGI is on record?
Answer: > 100 µM

Question: For `COC(=O)C(=O)C(C(=O)C(=O)Nc1cc([N+](=O)[O-])ccc1C#N)c1nc2ccccc2[nH]c1=O` (configuration not stated), which TGI is on record?
Answer: > 100 µM

Question: How did the TGI turn out when `CC(C)(C)C1(O)Cc2ccccc2C(=O)O1` (configuration not stated) was run?
Answer: > 100 µM

tested on: SNB-78 CNS; assay: NCI anticancer screen, dose series, 48 h

Question: For `O=c1c2ccccc2c2c3c1cccc3c1cccc3c(=O)c4ccccc4c2c31`, which TGI is on record?
Answer: > 100 µM

Question: `Clc1ccc(CNc2nc3ccccc3nc2-c2cccs2)c(Cl)c1` was tested. Which TGI did it give?
Answer: > 100 µM

Question: Which TGI does the source give for `CC(C)(C)C1(O)Cc2ccccc2C(=O)O1` (configuration not stated) here?
Answer: > 100 µM

tested on: DLD-1 colon; assay: NCI anticancer screen, dose series, 48 h

Question: `O=c1c2ccccc2c2c3c1cccc3c1cccc3c(=O)c4ccccc4c2c31` was tested. Which TGI did it give?
Answer: > 100 µM

Question: `COC(=O)C(=O)C(C(=O)C(=O)Nc1cc([N+](=O)[O-])ccc1C#N)c1nc2ccccc2[nH]c1=O` (configuration not stated) was tested. Which TGI did it give?
Answer: > 100 µM

Question: `CC(C)(C)C1(O)Cc2ccccc2C(=O)O1` (configuration not stated) was tested. Which TGI did it give?
Answer: > 100 µM

tested on: HT29 colon; assay: NCI anticancer screen, dose series, 48 h

Question: `O=c1c2ccccc2c2c3c1cccc3c1cccc3c(=O)c4ccccc4c2c31` was tested. Which TGI did it give?
Answer: > 100 µM

Question: How did the TGI turn out when `Clc1ccc(CNc2nc3ccccc3nc2-c2cccs2)c(Cl)c1` was run?
Answer: > 100 µM

Question: For `COC(=O)C(=O)C(C(=O)C(=O)Nc1cc([N+](=O)[O-])ccc1C#N)c1nc2ccccc2[nH]c1=O` (configuration not stated), which TGI is on record?
Answer: > 100 µM

Question: Which TGI does the source give for `CC(C)(C)C1(O)Cc2ccccc2C(=O)O1` (configuration not stated) here?
Answer: > 100 µM

tested on: SK-MEL-5 melanoma; assay: NCI anticancer screen, dose series, 48 h

Question: Which TGI does the source give for `O=c1c2ccccc2c2c3c1cccc3c1cccc3c(=O)c4ccccc4c2c31` here?
Answer: > 100 µM

Question: Which TGI does the source give for `COC(=O)C(=O)C(C(=O)C(=O)Nc1cc([N+](=O)[O-])ccc1C#N)c1nc2ccccc2[nH]c1=O` (configuration not stated) here?
Answer: > 100 µM

Question: How did the TGI turn out when `CC(C)(C)C1(O)Cc2ccccc2C(=O)O1` (configuration not stated) was run?
Answer: > 100 µM

tested on: UO-31 renal; assay: NCI anticancer screen, dose series, 48 h

Question: How did the TGI turn out when `O=c1c2ccccc2c2c3c1cccc3c1cccc3c(=O)c4ccccc4c2c31` was run?
Answer: > 100 µM

Question: With `Clc1ccc(CNc2nc3ccccc3nc2-c2cccs2)c(Cl)c1` as the molecule, how does the TGI read?
Answer: > 100 µM

Question: Which TGI does the source give for `COC(=O)C(=O)C(C(=O)C(=O)Nc1cc([N+](=O)[O-])ccc1C#N)c1nc2ccccc2[nH]c1=O` (configuration not stated) here?
Answer: > 100 µM

Question: How did the TGI turn out when `CC(C)(C)C1(O)Cc2ccccc2C(=O)O1` (configuration not stated) was run?
Answer: > 100 µM

tested on: SK-OV-3 ovarian; assay: NCI anticancer screen, dose series, 48 h

Question: How did the TGI turn out when `O=c1c2ccccc2c2c3c1cccc3c1cccc3c(=O)c4ccccc4c2c31` was run?
Answer: > 100 µM

Question: Which TGI does the source give for `COC(=O)C(=O)C(C(=O)C(=O)Nc1cc([N+](=O)[O-])ccc1C#N)c1nc2ccccc2[nH]c1=O` (configuration not stated) here?
Answer: > 100 µM

Question: `CC(C)(C)C1(O)Cc2ccccc2C(=O)O1` (configuration not stated) was tested. Which TGI did it give?
Answer: > 100 µM

tested on: NCI-H23 lung; assay: NCI anticancer screen, dose series, 48 h

Question: `O=c1c2ccccc2c2c3c1cccc3c1cccc3c(=O)c4ccccc4c2c31` was tested. Which TGI did it give?
Answer: > 100 µM

Question: For `Clc1ccc(CNc2nc3ccccc3nc2-c2cccs2)c(Cl)c1`, which TGI is on record?
Answer: > 100 µM

Question: For `COC(=O)C(=O)C(C(=O)C(=O)Nc1cc([N+](=O)[O-])ccc1C#N)c1nc2ccccc2[nH]c1=O` (configuration not stated), which TGI is on record?
Answer: > 100 µM

Question: Which TGI does the source give for `CC(C)(C)C1(O)Cc2ccccc2C(=O)O1` (configuration not stated) here?
Answer: > 100 µM

tested on: RPMI-8226 leukemia; assay: NCI anticancer screen, dose series, 48 h

Question: For `Clc1ccc(CNc2nc3ccccc3nc2-c2cccs2)c(Cl)c1`, which TGI is on record?
Answer: > 100 µM

tested on: HOP-62 NSCLC; assay: NCI anticancer screen, dose series, 48 h

Question: Which TGI does the source give for `O=c1c2ccccc2c2c3c1cccc3c1cccc3c(=O)c4ccccc4c2c31` here?
Answer: > 100 µM

Question: For `Clc1ccc(CNc2nc3ccccc3nc2-c2cccs2)c(Cl)c1`, which TGI is on record?
Answer: > 100 µM

Question: With `COC(=O)C(=O)C(C(=O)C(=O)Nc1cc([N+](=O)[O-])ccc1C#N)c1nc2ccccc2[nH]c1=O` (configuration not stated) as the molecule, how does the TGI read?
Answer: > 100 µM

Question: How did the TGI turn out when `CC(C)(C)C1(O)Cc2ccccc2C(=O)O1` (configuration not stated) was run?
Answer: > 100 µM

tested on: CCRF-CEM leukemia; assay: NCI anticancer screen, dose series, 48 h

Question: Which TGI does the source give for `O=c1c2ccccc2c2c3c1cccc3c1cccc3c(=O)c4ccccc4c2c31` here?
Answer: > 100 µM

Question: With `Clc1ccc(CNc2nc3ccccc3nc2-c2cccs2)c(Cl)c1` as the molecule, how does the TGI read?
Answer: > 100 µM
